Earlier results on two compounds are cited in US7737327B2, “Methods for screening for genes and small molecules that activate mammalian receptor proteins” (The University of Kentucky Research Foundation, priority 2004, dated 2010).

The subject of series [1] is mouse mammary tumor virus promoter. The note with it: only when low level of inducer (200 nm dexamethasone) present simultaneously.
The conditions of series [2]: mice on a high-cholesterol diet.

(−)-epigallocatechin-3-O-gallate: in series [1], the “effect on activity of mouse mammary tumor virus promoter” value is reported as “enhance the activity”. For `C/C=C1\C(=O)C[C@H]2[C@@H]3CCC4=CC(=O)CC[C@]4(C)[C@H]3CC[C@]12C` [guggelsterone], the “effect on hepatic cholesterol” value in series [2] was “decrease hepatic cholesterol”.
